From patent US7183267B2, “β-lactamase inhibitors and methods of use thereof” (priority 2003, dated 2007)
Like-named read-outs stand apart in the source and are kept apart here.

Columns and labels:
β-lactamase mutant E104K = β-lactamase mutant E104K (Escherichia coli, UniProt P62593, E102K); format: biochemical; conditions: number higher than 1 reflects a loss of potency against mutant
Protocol: (§1) The inhibition of TEM-1 β-lactamase was determined spectrophotometrically. B-lactamase activity was followed by measuring the hydrolysis of nitrocefin, [3-(2,4-dinitrostyryl)-(6R, 7R)-7-(2-thienylacetamido)-ceph-3-em-4-carboxylic acid, E-isomer], (Calbiochem, San Diego, Calif., USA) at 486 nm. Inhibition assays were performed at 25° C. in 50 mM sodium phosphate, 5% DMSO, pH 7.0. […] Inhibitor was added to the enzyme and incubated for ten minutes before the addition of substrate. Inhibition constants (Ki) for the inhibitors are obtained at the desired temperature and solvent conditions by measuring the rate of substrate hydrolysis at increasing amounts of inhibitors.
(§2) Three of the most important mutations are M69I, R244S and E104K.

β-lactamase mutant M69I = β-lactamase mutant M69I (Escherichia coli, UniProt P62593, M67I); format: biochemical; conditions: number higher than 1 reflects a loss of potency against mutant
Protocol: as §1, §2

β-lactamase mutant R244S = β-lactamase mutant R244S (Escherichia coli, UniProt P62593, R241S); format: biochemical; conditions: number higher than 1 reflects a loss of potency against mutant
Protocol: as §1, §2

TEM-1 β-lactamase [1] = target: T1, TEM-1 β-lactamase (Escherichia coli, UniProt P62593); experiment: TEM-1 β-lactamase inhibition assay (nitrocefin hydrolysis, 486 nm); format: biochemical
Protocol: as §1
(§3) The competitive inhibition of β-lactamase was determined spectrophotometrically using a Varian (Walnut Creek, Calif.) Cary 100 UV-Visible spectrophotometer. β-lactamase activity was followed by measuring the hydrolysis of nitrocefin, [3-(2,4-dinitrostyryl)-(6R, 7R)-7-(2-thienylacetamido)-ceph-3-em-4-carboxylic acid, E-isomer], (Calbiochem, San Diego, Calif.) at 486 nm. Inhibition assays were performed at 25° C. in 50 mM sodium phosphate, 5% DMSO, pH 7.0. […] Penicillin G (Sigma, St. Louis, Mo.) was also used as a substrate to determine KM and kcat.
(§4) Inhibitor was added to protein and incubated for ten minutes before the addition of substrate. Inhibition constants were determined by measuring the loss of P-lactamase activity with increasing inhibitor concentrations and fitting the data to standard equations for competitive inhibition.
(§5) These methods can also be used to express and assay recombinant TEM-1 variant of β-lactamase.

AmpC β-lactamase [2] = target: T2, AmpC β-lactamase (Escherichia coli, UniProt P00811); experiment: AmpC β-lactamase competitive inhibition assay (nitrocefin hydrolysis); format: biochemical
T2 construct: made in house; host or cells: E. coli BL21 (DE3)
Protocol: The gene for AmpC β-lactamase (accession number P00811) was obtained from Escherichia coli K12 strain W3110 (American Type Culture Collection, Rockville Md.). E. coli was grown and plasmid (F-lacIq lacPL8 ampC::lambdacI+) was isolated via Qiagen (Valencia, Calif.) mini prep. The gene for AmpC was amplified in two pieces via polymerase chain reaction, ligated and purified by agarose gel electrophoresis. The ligated gene was inserted into a pET200 vector via a TOPO reaction (Invitrogen, Carlsbad, Calif.).
BL21 (DE3) (Invitrogen) cells were transformed by heat-shock with the prepared plasmid. These cells were grown to an OD600 of 0.8 at 37° C. Isopropylthiogalactoside (IPTG) was added to 1 mM, incubation temperature decreased to 25° C. and the cells were grown for an additional 18 hours. After 18 hours, the E. coli was pelleted by centrifugation, and discarded. The growth media was concentrated and dialyzed versus 100 mM Tris, pH 7.0. This solution was run through an equilibrated Q-resin column, and washed with excess 100 mM Tris, pH 7.0.
as §3, §4

AmpC β-lactamase [3] = target: T2, AmpC β-lactamase; conditions: binding to AmpC; ITC
Protocol: (§6) Isothermal titration calorimetry was performed on a high-precision VP-ITC titration calorimeter (Microcal Inc., Northampton, Mass.). β-Lactamase solutions were titrated with inhibitors in 50 mM sodium phosphate, 2% DMSO, pH 7.0, with β-lactamase concentrations ranging from 15 to 25 μM and inhibitor concentrations ranging from 300 to 1000 μM. The heat evolved from each injection was obtained by integrating the calorimetric signal. Heat of binding was obtained as the difference between the heat of reaction and the heat of inhibitor dilution. Data were analyzed using Origin 7.0 (OriginLab Corporation, Northampton, Mass.).
Isothermal titration calorimetry was undertaken to determine the thermodynamic characteristics of binding to AmpC β-lactamase.

TEM-1 β-lactamase [4] = target: T1, TEM-1 β-lactamase; experiment: Isothermal titration calorimetry, binding to TEM-1 β-lactamase (Example 17); conditions: ITC
Protocol: as §6, §5
Also shown are the results obtained for β-lactamase variant TEM-1.

[5] = Ki, 25° C., 50 mM sodium phosphate, 5% DMSO, pH 7.0, enzyme 5 nM, nitrocefin 167 μM

SMILES: O=C(O)[C@H]1/C(=C/CO)O[C@@H]2CC(=O)N21 [Clavulanic, clavulanic acid, reference compound]
- Loss of potency: ratio of the inhibitory constant between mutant and wild type (Potencywt/Potencymutant), E104K (β-lactamase mutant E104K): 0.67
- Loss of potency: ratio of the inhibitory constant between mutant and wild type (Potencywt/Potencymutant), M69I (β-lactamase mutant M69I): 163
- Loss of potency: ratio of the inhibitory constant between mutant and wild type (Potencywt/Potencymutant), R244S (β-lactamase mutant R244S): 38

SMILES: O=C(Oc1ccc2sc(=O)oc2c1)c1cc(B(O)O)cc([N+](=O)[O-])c1 [Compound (1f), 3-(2-OxO-benzo[1,3]oxathiol-6-oxycarbonyl)-5-nitrophenylboronic acid]
- Ki (TEM-1 β-lactamase [1]; [5]): 33 ± 4 µM
- Loss of potency: ratio of the inhibitory constant between mutant and wild type (Potencywt/Potencymutant), E104K (β-lactamase mutant E104K): 0.37
- Loss of potency: ratio of the inhibitory constant between mutant and wild type (Potencywt/Potencymutant), M69I (β-lactamase mutant M69I): 0.47
- Loss of potency: ratio of the inhibitory constant between mutant and wild type (Potencywt/Potencymutant), R244S (β-lactamase mutant R244S): 0.42

SMILES: CCOC(=O)c1ccccc1OC(=O)c1cc(B(O)O)cc([N+](=O)[O-])c1 [Compound (1i), 3-(2-Ethoxycarbonyl-phenoxycarbonyl)-5-nitrophenylboronic acid]
- Ki (TEM-1 β-lactamase [1]; [5]): 101 ± 4 µM
- Loss of potency: ratio of the inhibitory constant between mutant and wild type (Potencywt/Potencymutant), E104K (β-lactamase mutant E104K): 0.36
- Loss of potency: ratio of the inhibitory constant between mutant and wild type (Potencywt/Potencymutant), M69I (β-lactamase mutant M69I): 0.50
- Loss of potency: ratio of the inhibitory constant between mutant and wild type (Potencywt/Potencymutant), R244S (β-lactamase mutant R244S): 0.34

SMILES: O=C(Oc1cccc(B(O)O)c1)c1cc(B(O)O)cc([N+](=O)[O-])c1 [Compound (1v), 3-(3-Boronophenoxycarbonyl)-5-nitrophenylboronic acid]
- Ki (TEM-1 β-lactamase [1]; [5]): 32 ± 1.1 µM
- Ki (AmpC β-lactamase [2]): 5.01 µM
- ΔG (AmpC β-lactamase [3]): -7.221 kcal/mol
- ΔH (AmpC β-lactamase [3]): -10.412 kcal/mol
- −TΔS (AmpC β-lactamase [3]): 3.191 kcal/mol

SMILES: O=C(Oc1ccc(OC(=O)c2cc(B(O)O)cc([N+](=O)[O-])c2)c(Cl)c1)c1cc(B(O)O)cc([N+](=O)[O-])c1 [Compound (2b), 3-Borono-5-nitrobenzoic acid 2-chloro-1,4-phenylene ester]
- Ki (TEM-1 β-lactamase [1]; [5]): 15.2 ± 1.4 µM
- Ki (TEM-1 β-lactamase [1]; Ki, TEM-1 β-lactamase): 15.2 µM
- Ki (AmpC β-lactamase [2]): 2.92 µM
- ΔG (AmpC β-lactamase [3]): -7.736 kcal/mol
- ΔH (AmpC β-lactamase [3]): -0.225 kcal/mol
- −TΔS (AmpC β-lactamase [3]): -7.511 kcal/mol
- ΔG (TEM-1 β-lactamase [4]): -7.864 kcal/mol
- ΔH (TEM-1 β-lactamase [4]): -0.52 kcal/mol
- −TΔS (TEM-1 β-lactamase [4]): -7.344 kcal/mol

SMILES: O=C(Oc1c(Cl)c(Cl)c(OC(=O)c2cc(B(O)O)cc([N+](=O)[O-])c2)c(Cl)c1Cl)c1cc(B(O)O)cc([N+](=O)[O-])c1 [Compound (2c)]
- Ki (TEM-1 β-lactamase [1]; Ki, TEM-1 β-lactamase): 6.7 µM
- Ki (AmpC β-lactamase [2]): 3.68 µM
- ΔG (AmpC β-lactamase [3]): -7.115 kcal/mol
- ΔH (AmpC β-lactamase [3]): -0.473 kcal/mol
- −TΔS (AmpC β-lactamase [3]): -6.642 kcal/mol
- ΔG (TEM-1 β-lactamase [4]): -5.814 kcal/mol
- ΔH (TEM-1 β-lactamase [4]): -1.648 kcal/mol
- −TΔS (TEM-1 β-lactamase [4]): -4.166 kcal/mol

SMILES: CC(C)(C)c1cc(OC(=O)c2cc(B(O)O)cc([N+](=O)[O-])c2)ccc1OC(=O)c1cc(B(O)O)cc([N+](=O)[O-])c1 [Compound (2d)]
- Ki (TEM-1 β-lactamase [1]; Ki, TEM-1 β-lactamase): 10.9 µM
- Ki (AmpC β-lactamase [2]): 6.27 µM
- ΔG (AmpC β-lactamase [3]): -7.098 kcal/mol
- ΔH (AmpC β-lactamase [3]): 0 kcal/mol
- −TΔS (AmpC β-lactamase [3]): -7.098 kcal/mol
- ΔG (TEM-1 β-lactamase [4]): -6.513 kcal/mol
- ΔH (TEM-1 β-lactamase [4]): -0.859 kcal/mol
- −TΔS (TEM-1 β-lactamase [4]): -5.654 kcal/mol

SMILES: O=C(OCc1cccc(B(O)O)c1)c1cc(B(O)O)cc([N+](=O)[O-])c1 [Compound (3d), 3-(3-Boronobenzyloxycarbonyl)-5-nitrophenylboronic acid]
- Ki (TEM-1 β-lactamase [1]; [5]): 55.7 ± 4.3 µM
- Ki (AmpC β-lactamase [2]): 1.03 µM
- ΔG (AmpC β-lactamase [3]): -7.442 kcal/mol
- ΔH (AmpC β-lactamase [3]): -15.637 kcal/mol
- −TΔS (AmpC β-lactamase [3]): 8.195 kcal/mol

SMILES: O=C(Oc1cccc(B(O)O)c1)c1c(Cl)cccc1Cl [Compound (6a), 3-(2,6-Dichlorophenylcarbonyloxy)phenyl boronic acid]
- Ki (TEM-1 β-lactamase [1]; [5]): 28 ± 2.1 µM
- Ki (AmpC β-lactamase [2]): 1.53 µM
- ΔG (AmpC β-lactamase [3]): -7.757 kcal/mol
- ΔH (AmpC β-lactamase [3]): -6.538 kcal/mol
- −TΔS (AmpC β-lactamase [3]): -1.219 kcal/mol

SMILES: O=C(Oc1ccc(OC(=O)c2ccc(B(O)O)cc2F)c(Cl)c1)c1ccc(B(O)O)cc1F [Compound (7a), 4-Borono-2-fluorobenzoic acid 2-chloro-1,4-phenylene ester]
- Ki (TEM-1 β-lactamase [1]; [5]): 122 ± 10 µM
- Ki (AmpC β-lactamase [2]): 0.873 µM
- ΔG (AmpC β-lactamase [3]): -7.314 kcal/mol
- ΔH (AmpC β-lactamase [3]): -9.936 kcal/mol
- −TΔS (AmpC β-lactamase [3]): 2.622 kcal/mol

SMILES: O=C(OCc1ccccc1COC(=O)c1cc(B(O)O)cc([N+](=O)[O-])c1)c1cc(B(O)O)cc([N+](=O)[O-])c1 [Compound (10a), 3-Borono-5-nitrobenzoic acid 1,2-benzenedimethanol ester]
- Ki (TEM-1 β-lactamase [1]; Ki, TEM-1 β-lactamase): 9.7 µM
- Ki (AmpC β-lactamase [2]): 0.457 µM
- ΔG (AmpC β-lactamase [3]): -8.59 kcal/mol
- ΔH (AmpC β-lactamase [3]): -4.149 kcal/mol
- −TΔS (AmpC β-lactamase [3]): -4.441 kcal/mol
- ΔG (TEM-1 β-lactamase [4]): -7.183 kcal/mol
- ΔH (TEM-1 β-lactamase [4]): -0.982 kcal/mol
- −TΔS (TEM-1 β-lactamase [4]): -6.201 kcal/mol

SMILES: O=C(Oc1cc(OC(=O)c2cc(B(O)O)cc([N+](=O)[O-])c2)cc(OC(=O)c2cc(B(O)O)cc([N+](=O)[O-])c2)c1)c1cc(B(O)O)cc([N+](=O)[O-])c1 [Compound (12a), Tris(3-borono-5-nitrobenzoic acid), 1,3,5-trihydroxybenzene ester]
- Ki (TEM-1 β-lactamase [1]): 6.9 µM
- Ki (AmpC β-lactamase [2]): 1.94 µM
- ΔG (AmpC β-lactamase [3]): -7.231 kcal/mol
- ΔH (AmpC β-lactamase [3]): -1.47 kcal/mol
- −TΔS (AmpC β-lactamase [3]): -5.761 kcal/mol
- ΔG (TEM-1 β-lactamase [4]): -6.468 kcal/mol
- ΔH (TEM-1 β-lactamase [4]): -0.69 kcal/mol
- −TΔS (TEM-1 β-lactamase [4]): -5.778 kcal/mol

SMILES: O=C(OCc1ccccc1)c1cccc(B(O)O)c1 [Compound F1001]
- Ki (TEM-1 β-lactamase [1]; [5]): 104 µM
- Ki (AmpC β-lactamase [2]): 1.79 µM
- ΔG (AmpC β-lactamase [3]): -6.83 kcal/mol
- ΔH (AmpC β-lactamase [3]): -0.644 kcal/mol
- −TΔS (AmpC β-lactamase [3]): -6.186 kcal/mol

SMILES: CC1(C)[C@H](C(=O)O)N2C(=O)C[C@H]2S1(=O)=O [Sulbactam, sulbactam, reference compound]
- Loss of potency: ratio of the inhibitory constant between mutant and wild type (Potencywt/Potencymutant), E104K (β-lactamase mutant E104K): 1
- Loss of potency: ratio of the inhibitory constant between mutant and wild type (Potencywt/Potencymutant), M69I (β-lactamase mutant M69I): 15
- Loss of potency: ratio of the inhibitory constant between mutant and wild type (Potencywt/Potencymutant), R244S (β-lactamase mutant R244S): 93

SMILES: C[C@]1(Cn2ccnn2)[C@H](C(=O)O)N2C(=O)C[C@H]2S1(=O)=O [Tazobactam, tazobactam, reference compound]
- Loss of potency: ratio of the inhibitory constant between mutant and wild type (Potencywt/Potencymutant), E104K (β-lactamase mutant E104K): 1
- Loss of potency: ratio of the inhibitory constant between mutant and wild type (Potencywt/Potencymutant), M69I (β-lactamase mutant M69I): 31
- Loss of potency: ratio of the inhibitory constant between mutant and wild type (Potencywt/Potencymutant), R244S (β-lactamase mutant R244S): 105
